Results from patent US10537601B2, “Method of isolating anti-viral ingredients from Baphicacanthus cusia, compositions comprising them and their medical use” (priority 2016, dated 2020).
Where two headings read alike, the source gives them in different places.

Tested on: influenza virus A/PR/8/34 (H1N1)
Test: organism not typed
Format: cell-based
Details: read-out: IC50 (anti-viral activity, 50% inhibitory concentration)
[1] = MDCK cells infected with 100TCID50 of influenza A/PR/8/34 (H1N1), treatment for 48 h, Reed-Muench method

Row | Structure (SMILES) | IC50 [1] [µM] | IC50 (MDCK, 48 h) [µM]
1 | O=C1COc2ccccc2N1 [Compound of Formula 9, 2H-1,4-benzoxazin-3-one] | > 200 | 
2 | O=Cc1c[nH]c2ccccc12 [Compound of Formula 7, 1H-indole-3-carbaldehyde] | 42 | 
3 | C=C(CO)[C@@H]1CC[C@]2(C)CC[C@]3(C)[C@H](CC[C@@H]4[C@@]5(C)CC[C@H](O)C(C)(C)C5CC[C@]43C)[C@@H]12 (stereo partly drawn) [Compound of Formula 19, lup-20(29)-en-3β, 30-diol] |  | 33.6
4 | O=C1Nc2ccccc2O[C@@H]1O [Compound of Formula 5, 2-hydroxy-1,4-benzoxazin-3-one] | > 200 | 
5 | NC(=O)c1ncn([C@@H]2O[C@H](CO)[C@@H](O)[C@H]2O)n1 [ribavirin, reference compound] | 30.4 | 
